With CN(C)CCCCC(=O)N1CCC(c2[nH]nc3c2C(=O)c2c(NC(=O)NN4CCOCC4)cccc2-3)CC1 the melting point was 68 to 70 °C. Compound N=c1ccccn1COc1ccccc1Br has a melting point of 62 to 64 °C. Work on Cc1sc(NS(=O)(=O)c2c(Cl)cc(Cl)cc2Cl)nc1CC(=O)N1CCOCC1 yielded a melting point of 216 to 217 °C. In the case of CC(C)(C)[C@H]1CC[C@H](CC2=C(Cl)C(=O)c3ccccc3C2=O)CC1, the melting point is reported as 154 to 156 °C. For NNc1ncnc(Nc2ccc(F)c(C(F)(F)F)c2)n1, the melting point was 181 to 182 °C. In the case of Cc1c(C)c2c(c(C)c1N)CC(C)(CN1CCCCC1)O2 (stereo not given), the melting point is reported as 60 to 61 °C. COc1ccc(CCNc2nc3nc(-c4ccco4)nc-3c(N)[nH]2)cc1 showed a melting point of 220 to 222 °C. Work on Cn1cncc1C(N)(c1ccc(Cl)cc1)c1ccc2c(c1)c(-c1nc(-c3ccccc3)cs1)cc(=O)n2C (stereo not given) yielded a melting point of 237 °C. Compound CN1Cc2cncn2C(c2ccc(Br)cc2)C1=O (stereo not given) has a melting point of 143 to 144 °C. With CC(C)(C)c1ccc(N2CCNCC2)cc1 the melting point was 48 to 52 °C. With CCOCC1OC(n2cnc3c(N)nc(Cl)nc32)C(O)C1O (stereo not given) the melting point was 117 to 119 °C. COc1cc(C(=O)CCC(=O)c2cc(OC)c(OC)c(OC)c2)cc(I)c1O gave a melting point of 189 to 190 °C. In the case of O=C(O)c1ccccc1Nc1ccc(CCCc2ccc(Cl)c(Cl)c2)cc1, the melting point is reported as 120 to 126 °C. Work on CCOC(=O)CN1C(=O)C(NC(=O)Nc2cccc(C)c2)N=C(C)c2cccc(C)c21 (stereo not given) yielded a melting point of 230 to 231 °C. Compound COc1cccc2c1CCC(C=O)C2=O (stereo not given) has a melting point of 68 to 70 °C. CC1(COc2c(-c3ccc(S(C)(=O)=O)cc3)cnn(CC(F)(F)F)c2=O)CC1 showed a melting point of 98 to 99 °C. In the case of CCN(CCOC)C(=O)c1cc(-c2ccccc2)c(=O)n2c1-c1cc(Cl)ccc1CN2, the melting point is reported as 184 to 185 °C. In the case of CCCCN1CCC(C(=O)O)(S(=O)(=O)c2ccc(OCCC(C)C)cc2)CC1, the melting point is reported as 188 °C. CS(=O)(=O)Nc1cccc2c(-c3ccccc3)c([N+](=O)[O-])oc12 showed a melting point of 169 to 172 °C. Work on CC(C)(OCc1cc2cc(C(F)(F)F)ccc2n1S(=O)(=O)c1ccc2c(c1)OCCO2)C(=O)O yielded a melting point of 75 °C. Work on CC=C1CCC2C3CC=C4CC(O[Si](CC)(CC)CC)CC(O[Si](CC)(CC)CC)C4(C)C3CCC12C (stereo not given) yielded a melting point of 81 to 82 °C. In the case of Cn1cncc1C(c1ccc(Cl)cc1)c1ccc2c(c1)C(c1cccc(Cl)c1)SCc1nnnn1-2 (stereo not given), the melting point is reported as 162 °C. With CCOC(=O)N1CCN(c2ccc(Cl)nn2)CC1 the melting point was 124 °C. CC(C)(CCc1ccccc1)NCC(O)CO (stereo not given) gave a melting point of 74 to 77 °C. Compound FC(F)(F)c1cccc(OCc2ccc3ccccc3n2)c1 has a melting point of 77 to 78 °C. Nc1nc(N)c2c(Sc3ccccc3)cccc2n1 gave a melting point of 195 to 197 °C. Compound Cc1cc(Nc2ccn(-c3ccccc3)n2)cc(C)c1OC(=O)CC#N has a melting point of 116 to 117 °C. Compound CC1(C)CS(=O)(=O)CC(C)(C)N1Br has a melting point of 150 °C. CC(C)OC(=O)C=Cc1cc(N)ccc1Cl gave a melting point of 98 to 100 °C. COc1ccc(-c2[nH]nc3c2C(=O)c2c(NC(=O)Cc4ccccc4)cccc2-3)cc1 gave a melting point of 280 °C. With O=S1(=O)CS(=O)(=O)OCCO1 the melting point was 176 to 180 °C. CC(C)(C)NC(=O)CP(=O)(O)O gave a melting point of 163 to 165 °C. Compound COc1cc2occ(C(=O)Nc3cccnc3)c2cc1Br has a melting point of 210 to 212 °C. In the case of CCCCn1nc(C(C)(F)F)nc1Cc1ccc(-c2ccccc2-c2nnn[nH]2)nc1, the melting point is reported as 180 to 182 °C. Compound CC(=O)Nc1nc2c(nc(NC(C)=O)n2Cc2cccs2)c(=O)[nH]1 has a melting point of 243 to 244 °C. In the case of CSCC(C)(C)NC(=O)c1c(I)cccc1-c1ccc(C(F)(F)F)cc1, the melting point is reported as 194 to 196 °C. Compound CCOC(=O)C1=C(COCc2nnn(CCNc3nc(N)n[nH]3)n2)NC(C)=C(C(=O)OC)C1c1cccc(Cl)c1Cl (stereo not given) has a melting point of 85 °C. For CC(O)C(CCCc1ccccc1)n1ncc2c(=O)[nH]c(Cc3ccc(F)cc3)nc21 (stereo not given), the melting point was 103 °C. COc1ccc(CNc2c(Cl)cnn(-c3ccccc3)c2=O)cc1 showed a melting point of 125 to 126 °C. Cc1nc(-n2cc(C(O)c3ccccc3)nn2)sc1C(=O)NCc1ccccc1 (stereo not given) showed a melting point of 143 to 146 °C. For O=C(O)CNC(=O)COc1nc(F)c(Cl)cc1Cl, the melting point was 155 to 157 °C. Compound CSC1=Nc2ccncc2S(=O)(=O)N1C has a melting point of 135 to 138 °C. For CCCN(CCC)C(=O)CCn1c(-c2ccc(Cl)cc2)nc2cccnc21, the melting point was 104 to 106 °C. For O=C1N(Cc2ccccn2)c2cccc(Br)c2C12COc1cc3c(cc12)CCO3 (stereo not given), the melting point was > 200 °C. Compound COc1cc([N+](=O)[O-])c(NCCO)c([N+](=O)[O-])c1 has a melting point of 104 °C. O=C(O)c1ccccc1-c1ccc2c(C(=O)NCC34CC5CC(CC(C5)C3)C4)c(Cl)ccc2n1 gave a melting point of 156 to 158 °C. CCc1nc(OC)c(NC(=O)N2CCN(c3cc(C)cc(C)c3)CC2)cc1C(=O)NC(C)C(=O)Nc1cc(CO)cc(Nc2c3ccccc3nc3ccc(C)cc23)c1 (stereo not given) gave a melting point of 164 to 166 °C. Compound O=C1c2ccccc2N(c2ccccc2)CN1O has a melting point of 156 to 160 °C. In the case of Cc1ccc2ccc(C(N)=O)cc2c1, the melting point is reported as 210 to 212 °C. CCc1cccc2c(C(=O)c3cccc(Cl)c3Cl)c(C)n(CCCS(=O)(=O)N(C)C)c12 gave a melting point of 18 °C. O=C(OCC(O)c1ccccc1)c1ccc(-c2ccc(OCCCCCCO)cc2)cc1 (stereo not given) gave a melting point of 148 to 150 °C. COc1ccc2c(c1F)C(=O)OC2=O showed a melting point of 128 to 130 °C. For COc1cc2ncc(C#N)c(Nc3ccc(Cl)cc3F)c2cc1OC, the melting point was 139 to 141 °C. Compound CCNC(=O)C(C)Oc1ccc(N(C)c2nc3cc(Cl)ccc3o2)cc1 (stereo not given) has a melting point of 141 to 142 °C. In the case of CCCCc1nc(C(O)(CC)CC)c(C(=O)OCC)[nH]1, the melting point is reported as 63 to 64 °C. Compound N#Cc1ccccc1C(F)(F)C(F)(F)c1ccccc1 has a melting point of 84 to 86 °C. Compound O=C(O)COc1cccc2c1CC(S(=O)(=O)Cc1ccccc1)c1sc(-c3ccc(F)cc3)nc1-2 (stereo not given) has a melting point of 210 to 211 °C. Compound CCC(CC)(CC)C(=O)Nc1nn(C)c2c1sc1ncccc12 has a melting point of 138 to 139 °C. COc1cc2c(c(Cl)c1Cl)C(=O)C(c1ccccc1)(C1CCCC1)C2 (stereo not given) gave a melting point of 105 to 108 °C. With CCC(Oc1ccccc1Cl)C(=O)OC1CC(O)C=C2C=CC(C)C(CCC3CC(O)CC(=O)O3)C21 (mixture of isomers) the melting point was 145 to 147 °C. In the case of COc1cccc(NC(=O)C(C)(C)C)c1C(C)O (stereo not given), the melting point is reported as 159 °C. Compound O=[N+]([O-])c1cccc2c1COC2 has a melting point of 104 to 108 °C. With CS(=O)(=O)c1ccc(-c2cnn(-c3ccsc3)c(=O)c2-c2ccc(F)cc2)cc1 the melting point was 200 to 202 °C. For Cc1[nH]c(=O)n(-c2cc(C(=O)OC(C)C)c(Cl)cc2F)c(=O)c1C#N, the melting point was 189 to 193 °C. Work on CC(=O)N1CCC(NC(=O)NC23CC4CC(CC(C4)C2)C3)CC1 yielded a melting point of 202 to 204 °C. CCOC(=O)CC(=O)CC(c1ccccc1)c1ccc(OC)c(OC2CCCC2)c1 (stereo not given) showed a melting point of 56 to 58 °C. CCc1[nH]n(C2CCCC2)c2nc(-c3cccc(OCCN4CCOCC4)c3)nc(=O)c1-2 gave a melting point of 173 to 176 °C. Work on C=CCOC(=O)c1c(Oc2nc(OC)cc(OC)n2)ccc2[nH]c(C)c(NC(C)=O)c12 yielded a melting point of 177 to 180 °C. In the case of O=c1[nH]nc(C(F)(F)F)s1, the melting point is reported as 54 to 55 °C. Work on NNc1ccc(Cl)cn1 yielded a melting point of 116 to 122 °C. CCCCCCCCCCNC(=O)C=Cc1cccc(N2CC(C(=O)O)CC2=O)c1 (stereo not given) showed a melting point of 151 to 152 °C. For NC1CCN(c2c(F)c(F)c3c(=O)c(C(=O)O)cn(C4CC4)c3c2F)C1 (stereo not given), the melting point was 290 to 292 °C. Compound CC(=O)c1ccc(O)c(C(C)C)c1 has a melting point of 142 to 144 °C. Compound Oc1ccc(OCc2ccccc2)c2ccccc12 has a melting point of 118 to 119 °C. Work on CCc1c(C)[nH]c(=O)c(CC)c1Oc1cc(C)cc(C)c1 yielded a melting point of 180 °C. For C=CCNc1nc(NCC=C)nc(N2CCN(C(=S)n3ccnc3)CC2)n1, the melting point was 124 to 127 °C. In the case of CN(C)c1cnn(-c2ccccc2)c(=O)c1N, the melting point is reported as 188 to 189 °C. Work on CC1C(=O)N(c2ccccc2)C(=S)N1c1ccc(Sc2ccccc2)cc1 (stereo not given) yielded a melting point of 84 °C. In the case of CCNC(=O)c1nn(-c2ccc(Cl)cc2)c(=O)c2c(N)scc12, the melting point is reported as 203 to 205 °C. For CC1CCc2cc(F)cc3c(=O)c(C(=O)NN)cn1c23 (stereo not given), the melting point was 236 to 238 °C. COC(=O)C(C(=O)OC)C(Cc1cc(Cl)ccc1N)c1ccc(OC)cc1 (stereo not given) gave a melting point of 114 to 116 °C. Work on COc1cc(OS(=O)(=O)C(F)(F)F)c(Cl)c(C)c1Cl yielded a melting point of 74 °C. In the case of CCN1CCc2cc(OC)c(OC)cc2C1C1CC(C(=O)O)CCC12c1cc(OC)c(OC)cc1CCN2CC (stereo not given), the melting point is reported as 124 to 126 °C. With Cc1ccc(C#N)c2c([N+](=O)[O-])ccc(Cl)c12 the melting point was 179 to 180 °C. In the case of O=C(Nc1ccc(C(F)(F)F)nc1C1CCN(CC=Cc2ccc(Cl)cc2)CC1)c1ccnc(Cl)c1, the melting point is reported as 134 to 135 °C. For Cn1c(C(F)(F)F)cc(=O)n(-c2ccc3snc(C=O)c3c2)c1=O, the melting point was 193 to 194 °C. CC(=O)ON=C(c1ccccc1)c1cc(C(C)(C)C)c(O)c(C(C)(C)C)c1 showed a melting point of 136 to 137 °C. Work on Cc1nc(-n2cc(Cc3ccccc3)nn2)sc1C(=O)NCc1ccccc1 yielded a melting point of 139 to 141 °C. Cc1cc2c(c(C)n1)c(=O)oc1ccccc12 gave a melting point of 194 to 197 °C. For CCCCCCNC(=O)C#CBr, the melting point was 64 to 64.3 °C. In the case of Cc1cc(NC(=O)CC(C)(C)C)c2c(c1)C(c1ccc(C(C)C)cc1)C(C)(C)O2 (stereo not given), the melting point is reported as 64 to 68 °C. COC(=O)C(C)(Oc1cccc(Oc2c(Cl)cc(C(F)(F)F)cc2Cl)c1)[N+](=O)[O-] (stereo not given) gave a melting point of 78 °C. Work on CNC(=O)[C@@H](C[C@H](O)[C@H](CC1CCCCC1)NC(=O)OC(C)(C)C)C(C)(C)O yielded a melting point of 174 to 175 °C. CN1C(=O)CNC(c2cccc(Cl)c2)c2cc(C(O)(c3ccc(Cl)cc3)c3cncn3C)ccc21 (stereo not given) showed a melting point of 208 °C. Compound CC(C)(C)OC(=O)N[C@@H]1CN(c2ccccc2)c2ccccc2NC1=O has a melting point of 160 to 165 °C. CCCCCCCCCCS(=O)(=O)Oc1c(I)cc(I)cc1I showed a melting point of 71 to 72 °C. COc1ccc(Sc2sc(S(N)(=O)=O)cc2C)cc1 showed a melting point of 107 to 110 °C. With CCC1CCC2(C)C(=CCC3C4CCC(=O)C4(C)CCC32)C1 (stereo not given) the melting point was 73 to 75 °C. CN1CCN(c2ccc(Nc3ncc4c(n3)S/C(=C/c3ccc(O)cc3)C(=O)N4)cc2)CC1 gave a melting point of 312 to 314 °C. In the case of CCCc1nc2c(N)nc3ccccc3c2n1CCOCCCS(C)=O (stereo not given), the melting point is reported as 148 to 151 °C.

Reference: a melting point compilation (Tetko et al.; mined from patent text by program, amines drawn as free bases though some values may be those of a salt)
